Results: ChEMBL document CHEMBL2311510, “A new single-photon emission computed tomography (SPECT) imaging agent for serotonin transporters: [(125)I]Flip-IDAM, (2-((2-((dimethylamino)methyl)-4-iodophenyl)thio)phenyl)methanol” (Bioorg Med Chem Lett, 2013)

What was measured:
Blood [1] = test: Biodistribution in Sprague-Dawley rat blood assessed as compound level per organ at 11 uCi, iv measured 120 mins post compound dose; type: ADME, organism-based; conditions: in vivo, 2 h
Zone of skin [2] = test: Biodistribution in Sprague-Dawley rat skin assessed as compound level per organ at 11 uCi, iv measured 60 mins post compound dose; type: ADME, organism-based; conditions: in vivo, 1 h
Liver [3] = test: Biodistribution in Sprague-Dawley rat liver assessed as compound level per organ at 11 uCi, iv measured 30 mins post compound dose; type: ADME, organism-based; conditions: in vivo, 0.5 h
Nucleic Acid [4] = test: Ratio of drug level in hippocampus to cerebellum in Sprague-Dawley rat at 11 uCi, iv measured 30 mins post compound dose; type: ADME, organism-based; conditions: in vivo, 0.5 h
Brain [5] = test: Biodistribution in Sprague-Dawley rat brain assessed as compound level per organ at 11 uCi, iv measured 30 mins post compound dose; type: ADME, organism-based; conditions: in vivo, 0.5 h
Pancreas [6] = test: Biodistribution in Sprague-Dawley rat pancreas at 11 uCi, iv measured 120 mins post compound dose; type: ADME, organism-based; conditions: in vivo, 2 h
Cortex [7] = test: Biodistribution in Sprague-Dawley rat cortex at 11 uCi, iv measured 120 mins post compound dose; type: ADME, organism-based; conditions: in vivo, 2 h
Brain [8] = test: Biodistribution in Sprague-Dawley rat brain at 11 uCi, iv measured 120 mins post compound dose; type: ADME, organism-based; conditions: in vivo, 2 h
Bone [9] = test: Biodistribution in Sprague-Dawley rat bone at 11 uCi, iv measured 60 mins post compound dose; type: ADME, organism-based, Bone element; conditions: in vivo, 1 h
Cerebellum = test: Biodistribution in Sprague-Dawley rat cerebellum at 11 uCi, iv measured 120 mins post compound dose; type: ADME, organism-based; conditions: in vivo, 2 h
Hypothalamus [10] = test: Biodistribution in Sprague-Dawley rat hypothalamus at 11 uCi, iv measured 60 mins post compound dose; type: ADME, organism-based; conditions: in vivo, 1 h
Bone [11] = test: Biodistribution in Sprague-Dawley rat bone at 11 uCi, iv measured 30 mins post compound dose; type: ADME, organism-based, Bone element; conditions: in vivo, 0.5 h
Zone of skin [12] = test: Biodistribution in Sprague-Dawley rat skin assessed as compound level per organ at 11 uCi, iv measured 2 mins post compound dose; type: ADME, organism-based; conditions: in vivo
Muscle tissue [13] = test: Biodistribution in Sprague-Dawley rat muscle at 11 uCi, iv measured 2 mins post compound dose; type: ADME, organism-based; conditions: in vivo
Hypothalamus [14] = test: Biodistribution in Sprague-Dawley rat hypothalamus at 11 uCi, iv measured 30 mins post compound dose; type: ADME, organism-based; conditions: in vivo, 0.5 h
Zone of skin [15] = test: Biodistribution in Sprague-Dawley rat skin at 11 uCi, iv measured 120 mins post compound dose; type: ADME, organism-based; conditions: in vivo, 2 h
Nucleic Acid [16] = test: Ratio of drug level in cortex to cerebellum in Sprague-Dawley rat at 11 uCi, iv measured 60 mins post compound dose; type: ADME, organism-based; conditions: in vivo, 1 h
Spleen [17] = test: Biodistribution in Sprague-Dawley rat spleen at 11 uCi, iv measured 30 mins post compound dose; type: ADME, organism-based; conditions: in vivo, 0.5 h
Lung = test: Biodistribution in Sprague-Dawley rat lung at 11 uCi, iv measured 30 mins post compound dose; type: ADME, organism-based; conditions: in vivo, 0.5 h
Nucleic Acid [18] = test: Ratio of drug level in rest of brain region to cerebellum in Sprague-Dawley rat at 11 uCi, iv measured 120 mins post compound dose; type: ADME, organism-based; conditions: in vivo, 2 h
Heart [19] = test: Biodistribution in Sprague-Dawley rat heart at 11 uCi, iv measured 30 mins post compound dose; type: ADME, organism-based; conditions: in vivo, 0.5 h
Brain [20] = test: Biodistribution in Sprague-Dawley rat rest of brain at 11 uCi, iv measured 120 mins post compound dose; type: ADME, organism-based; conditions: in vivo, 2 h
Kidney [21] = test: Biodistribution in Sprague-Dawley rat kidney at 11 uCi, iv measured 2 mins post compound dose; type: ADME, organism-based; conditions: in vivo
Striatum = test: Biodistribution in Sprague-Dawley rat striatum at 11 uCi, iv measured 120 mins post compound dose; type: ADME, organism-based; conditions: in vivo, 2 h
Brain [22] = test: Biodistribution in Sprague-Dawley rat rest of brain at 11 uCi, iv measured 60 mins post compound dose; type: ADME, organism-based; conditions: in vivo, 1 h
Liver [23] = test: Biodistribution in Sprague-Dawley rat liver at 11 uCi, iv measured 120 mins post compound dose; type: ADME, organism-based; conditions: in vivo, 2 h
Brain [24] = test: Biodistribution in Sprague-Dawley rat brain at 11 uCi, iv measured 30 mins post compound dose; type: ADME, organism-based; conditions: in vivo, 0.5 h
Liver [25] = test: Biodistribution in Sprague-Dawley rat liver assessed as compound level per organ at 11 uCi, iv measured 120 mins post compound dose; type: ADME, organism-based; conditions: in vivo, 2 h
Zone of skin [26] = test: Biodistribution in Sprague-Dawley rat skin at 11 uCi, iv measured 2 mins post compound dose; type: ADME, organism-based; conditions: in vivo
Cortex [27] = test: Biodistribution in Sprague-Dawley rat cortex at 11 uCi, iv measured 2 mins post compound dose; type: ADME, organism-based; conditions: in vivo
Brain [28] = test: Biodistribution in Sprague-Dawley rat brain assessed as compound level per organ at 11 uCi, iv measured 60 mins post compound dose; type: ADME, organism-based; conditions: in vivo, 1 h
Hypothalamus [29] = test: Biodistribution in Sprague-Dawley rat hypothalamus at 11 uCi, iv measured 2 mins post compound dose; type: ADME, organism-based; conditions: in vivo
Brain [30] = test: Biodistribution in Sprague-Dawley rat brain assessed as compound level per organ at 11 uCi, iv measured 2 mins post compound dose; type: ADME, organism-based; conditions: in vivo
Muscle tissue [31] = test: Biodistribution in Sprague-Dawley rat muscle assessed as compound level per organ at 11 uCi, iv measured 60 mins post compound dose; type: ADME, organism-based; conditions: in vivo, 1 h
Blood [32] = test: Biodistribution in Sprague-Dawley rat blood assessed as compound level per organ at 11 uCi, iv measured 60 mins post compound dose; type: ADME, organism-based; conditions: in vivo, 1 h
Liver [33] = test: Biodistribution in Sprague-Dawley rat liver assessed as compound level per organ at 11 uCi, iv measured 60 mins post compound dose; type: ADME, organism-based; conditions: in vivo, 1 h
Brain [34] = test: Biodistribution in Sprague-Dawley rat brain assessed as compound level per organ at 11 uCi, iv measured 120 mins post compound dose; type: ADME, organism-based; conditions: in vivo, 2 h
Heart [35] = test: Biodistribution in Sprague-Dawley rat heart at 11 uCi, iv measured 2 mins post compound dose; type: ADME, organism-based; conditions: in vivo
Cortex [36] = test: Biodistribution in Sprague-Dawley rat cortex at 11 uCi, iv measured 30 mins post compound dose; type: ADME, organism-based; conditions: in vivo, 0.5 h
Kidney [37] = test: Biodistribution in Sprague-Dawley rat kidney assessed as compound level per organ at 11 uCi, iv measured 30 mins post compound dose; type: ADME, organism-based; conditions: in vivo, 0.5 h
Spleen [38] = test: Biodistribution in Sprague-Dawley rat spleen assessed as compound level per organ at 11 uCi, iv measured 60 mins post compound dose; type: ADME, organism-based; conditions: in vivo, 1 h
Blood [39] = test: Biodistribution in Sprague-Dawley rat blood assessed as compound level per organ at 11 uCi, iv measured 2 mins post compound dose; type: ADME, organism-based; conditions: in vivo
Kidney [40] = test: Biodistribution in Sprague-Dawley rat kidney at 11 uCi, iv measured 120 mins post compound dose; type: ADME, organism-based; conditions: in vivo, 2 h
Nucleic Acid [41] = test: Ratio of drug level in striatum to cerebellum in Sprague-Dawley rat at 11 uCi, iv measured 120 mins post compound dose; type: ADME, organism-based; conditions: in vivo, 2 h
Kidney [42] = test: Biodistribution in Sprague-Dawley rat kidney assessed as compound level per organ at 11 uCi, iv measured 60 mins post compound dose; type: ADME, organism-based; conditions: in vivo, 1 h
Zone of skin [43] = test: Biodistribution in Sprague-Dawley rat skin assessed as compound level per organ at 11 uCi, iv measured 120 mins post compound dose; type: ADME, organism-based; conditions: in vivo, 2 h
Pancreas [44] = test: Biodistribution in Sprague-Dawley rat pancreas assessed as compound level per organ at 11 uCi, iv measured 30 mins post compound dose; type: ADME, organism-based; conditions: in vivo, 0.5 h
Hypothalamus [45] = test: Biodistribution in Sprague-Dawley rat hypothalamus at 11 uCi, iv measured 120 mins post compound dose; type: ADME, organism-based; conditions: in vivo, 2 h
Nucleic Acid [46] = test: Ratio of drug level in hypothalamus to cerebellum in Sprague-Dawley rat at 11 uCi, iv measured 30 mins post compound dose; type: ADME, organism-based; conditions: in vivo, 0.5 h
Brain [47] = test: Biodistribution in Sprague-Dawley rat brain at 11 uCi, iv measured 60 mins post compound dose; type: ADME, organism-based; conditions: in vivo, 1 h
Nucleic Acid [48] = test: Ratio of drug level in hippocampus to cerebellum in Sprague-Dawley rat at 11 uCi, iv measured 2 mins post compound dose; type: ADME, organism-based; conditions: in vivo

SMILES: CN(C)Cc1cc([125I])ccc1Sc1ccccc1CO
- Drug uptake (Blood [1]): 2.71 %ID
- Drug uptake (Zone of skin [2]): 6.4 %ID
- Drug uptake (Liver [3]): 9.09 %ID
- Ratio (Nucleic Acid [4]): 2.67
- Drug uptake (Brain [5]): 1.13 %ID
- Drug uptake (Pancreas [6]): 0.16 % ID/g
- Drug uptake (Cortex [7]): 0.06 % ID/g
- Drug uptake (Brain [8]): 0.06 % ID/g
- Drug uptake (Bone [9]): 0.23 % ID/g
- Drug uptake (Cerebellum): 0.05 % ID/g
- Drug uptake (Hypothalamus [10]): 0.32 % ID/g
- Drug uptake (Bone [11]): 0.4 % ID/g
- Drug uptake (Zone of skin [12]): 8.86 %ID
- Drug uptake (Muscle tissue [13]): 0.26 % ID/g
- Drug uptake (Hypothalamus [14]): 1 % ID/g
- Drug uptake (Zone of skin [15]): 0.13 % ID/g
- Ratio (Nucleic Acid [16]): 1.69
- Drug uptake (Spleen [17]): 0.55 % ID/g
- Drug uptake (Lung): 0.77 % ID/g
- Ratio (Nucleic Acid [18]): 1.18
- Drug uptake (Heart [19]): 0.38 % ID/g
- Drug uptake (Brain [20]): 0.06 % ID/g
- Drug uptake (Kidney [21]): 2.6 % ID/g
- Drug uptake (Striatum): 0.1 % ID/g
- Drug uptake (Brain [22]): 0.13 % ID/g
- Drug uptake (Liver [23]): 0.41 % ID/g
- Drug uptake (Brain [24]): 0.53 % ID/g
- Drug uptake (Liver [25]): 2.69 %ID
- Drug uptake (Zone of skin [26]): 0.28 % ID/g
- Drug uptake (Cortex [27]): 1.39 % ID/g
- Drug uptake (Brain [28]): 0.31 %ID
- Drug uptake (Hypothalamus [29]): 1.54 % ID/g
- Drug uptake (Brain [30]): 2.52 %ID
- Drug uptake (Muscle tissue [31]): 11 %ID
- Drug uptake (Blood [32]): 3.26 %ID
- Drug uptake (Liver [33]): 3.8 %ID
- Drug uptake (Brain [34]): 0.13 %ID
- Drug uptake (Heart [35]): 1.46 % ID/g
- Drug uptake (Cortex [36]): 0.21 % ID/g
- Drug uptake (Kidney [37]): 2.66 %ID
- Drug uptake (Spleen [38]): 0.14 %ID
- Drug uptake (Blood [39]): 6.43 %ID
- Drug uptake (Kidney [40]): 0.57 % ID/g
- Ratio (Nucleic Acid [41]): 1.89
- Drug uptake (Kidney [42]): 1.44 %ID
- Drug uptake (Zone of skin [43]): 4.07 %ID
- Drug uptake (Pancreas [44]): 0.26 %ID
- Drug uptake (Hypothalamus [45]): 0.1 % ID/g
- Ratio (Nucleic Acid [46]): 4.01
- Drug uptake (Brain [47]): 0.14 % ID/g
- Ratio (Nucleic Acid [48]): 0.85
